Source: ChEMBL document CHEMBL1126819, “Amino acid bioisosteres: design of 2-quinolone derivatives as glycine-site N-methyl-D-aspartate receptor antagonists” (Bioorg Med Chem Lett, 1993)

Legend:
[1] = species: Rattus norvegicus; test: Tested for ability to inhibit NMDA-induced depolarizations in rat cortical slices; format: functional
[2] = molecular target: Glutamate NMDA receptor; format: cell membranes, Rattus norvegicus, Membrane
Description: Displacement of [3H]L-689,560 from NMDA receptor glycine site of rat brain membranes

[3] = Dissociation constant pKa was determined; format: physicochemical

| IC50 [2] [nM] | pKa [3] | SMILES | Kb [1] [nM] |
| --- | --- | --- | --- |
| 410 |  | O=C1Nc2cc(Cl)ccc2CC1[N+](=O)[O-] (stereo not drawn) | 6700 |
| 6500 |  | COC(=O)c1c(O)c2ccc(Cl)cc2[nH]c1=O |  |
| ~100000 |  | Oc1nc2cc(Cl)ccc2c(O)c1C1CCCCC1 |  |
| 4 | ~4 | O=C(Nc1ccccc1)N[C@H]1C[C@H](C(=O)O)Nc2cc(Cl)cc(Cl)c21 | 110 |
| 170 | 5.4 | O=c1[nH]c2cc(Cl)ccc2c(O)c1-c1ccccc1 | 880 |
| > 300000 |  | O=c1cc(O)c2ccc(Cl)cc2[nH]1 |  |
| 3200 |  | O=C(c1ccccc1)c1c(O)nc2cc(Cl)ccc2c1O |  |
| 64 |  | O=C(O)c1cc(O)c2c(Cl)cc(Cl)cc2n1 | 1900 |

The next lines start with the compound.

| SMILES | IC50 [2] [nM] | pKa [3] | Kb [1] [nM] |
| --- | --- | --- | --- |
| Oc1nc2cc(Cl)cc(Cl)c2c(O)c1-c1ccccc1 | 97 |  |  |
| O=C(O)c1cc(O)c2c(I)cc(Cl)cc2n1 | 14 |  | 410 |
| C[C@@H]1CN(O)C(=O)[C@@H]1N | 2700 |  |  |
| CCc1cc(Cl)cc2nc(O)c(-c3ccccc3)c(O)c12 | 6.9 |  |  |
| O=[N+]([O-])c1cc([N+](=O)[O-])c2nc(O)c(O)nc2c1 | 170 | 6.5 | 1200 |
| O=C(O)c1cc(O)c2ccc(Cl)cc2n1 [7-CHLOROKYNURENIC ACID] |  |  | 7000 |
